# According to US9656968B2, “Pyrimidines as sodium channel blockers” (PURDUE PHARMA L.P, priority 2011, dated 2017):
# Like-named read-outs stand apart in the source and are kept apart here.
# How the values were obtained:
# [1] = target: human Nav1.7 (Homo sapiens (Human), UniProt Q15858); assay: FLIPR sodium dye assay for sodium channel blocking activity (recombinant Nav1.7/HEK293 cells); type: cell-based
# [2] = test system: SNL-induced mechanical hyperalgesia; assay: SNL-induced mechanical hyperalgesia model (paw pressure test, PWT); type: in vivo, rat; conditions: dosed orally at 100 mg/kg, vehicle 0.5% methyl cellulose, one hour before testing
# Protocol: In the Chung model, the spinal nerve ligation (SNL) model of neuropathic pain is used to produce mechanical hyperalgesia, thermal hyperalgesia, and tactile allodynia in rats. Surgery is performed under isoflurane/O2 inhalation anesthesia. Following induction of anesthesia a 3 cm incision is made and the left paraspinal muscles are separated from the spinous process at the L4-S2 levels. The L6 transverse process is carefully removed with a pair of small rongeurs to identify visually the L4-L6 spinal nerves. The left L5 (or L5 and L6) spinal nerve(s) is (are) isolated and tightly ligated with silk thread. […] The animals can also be assessed for response to noxious thermal stimuli or for tactile allodynia, as described below. […] Sensitivity to noxious mechanical stimuli was measured in animals using the paw pressure test to assess mechanical hyperalgesia. In rats, hind paw withdrawal thresholds (“PWT”), measured in grams, in response to a noxious mechanical stimulus were determined using an analgesymeter (Model 7200, commercially available from Ugo Basile of Italy), as described in Stein (Biochemistry & Behavior 31: 451-455 (1988)). […] PWT was determined once for each rat at each time point. PWT can be measured only in the injured paw, or in both the injured and non-injured paw. […]
# [3] = recombinant human Nav1.7 in HEK293
# human Nav1.7, sequence (Q15858 other isoform, or with tags, fused parts or gaps): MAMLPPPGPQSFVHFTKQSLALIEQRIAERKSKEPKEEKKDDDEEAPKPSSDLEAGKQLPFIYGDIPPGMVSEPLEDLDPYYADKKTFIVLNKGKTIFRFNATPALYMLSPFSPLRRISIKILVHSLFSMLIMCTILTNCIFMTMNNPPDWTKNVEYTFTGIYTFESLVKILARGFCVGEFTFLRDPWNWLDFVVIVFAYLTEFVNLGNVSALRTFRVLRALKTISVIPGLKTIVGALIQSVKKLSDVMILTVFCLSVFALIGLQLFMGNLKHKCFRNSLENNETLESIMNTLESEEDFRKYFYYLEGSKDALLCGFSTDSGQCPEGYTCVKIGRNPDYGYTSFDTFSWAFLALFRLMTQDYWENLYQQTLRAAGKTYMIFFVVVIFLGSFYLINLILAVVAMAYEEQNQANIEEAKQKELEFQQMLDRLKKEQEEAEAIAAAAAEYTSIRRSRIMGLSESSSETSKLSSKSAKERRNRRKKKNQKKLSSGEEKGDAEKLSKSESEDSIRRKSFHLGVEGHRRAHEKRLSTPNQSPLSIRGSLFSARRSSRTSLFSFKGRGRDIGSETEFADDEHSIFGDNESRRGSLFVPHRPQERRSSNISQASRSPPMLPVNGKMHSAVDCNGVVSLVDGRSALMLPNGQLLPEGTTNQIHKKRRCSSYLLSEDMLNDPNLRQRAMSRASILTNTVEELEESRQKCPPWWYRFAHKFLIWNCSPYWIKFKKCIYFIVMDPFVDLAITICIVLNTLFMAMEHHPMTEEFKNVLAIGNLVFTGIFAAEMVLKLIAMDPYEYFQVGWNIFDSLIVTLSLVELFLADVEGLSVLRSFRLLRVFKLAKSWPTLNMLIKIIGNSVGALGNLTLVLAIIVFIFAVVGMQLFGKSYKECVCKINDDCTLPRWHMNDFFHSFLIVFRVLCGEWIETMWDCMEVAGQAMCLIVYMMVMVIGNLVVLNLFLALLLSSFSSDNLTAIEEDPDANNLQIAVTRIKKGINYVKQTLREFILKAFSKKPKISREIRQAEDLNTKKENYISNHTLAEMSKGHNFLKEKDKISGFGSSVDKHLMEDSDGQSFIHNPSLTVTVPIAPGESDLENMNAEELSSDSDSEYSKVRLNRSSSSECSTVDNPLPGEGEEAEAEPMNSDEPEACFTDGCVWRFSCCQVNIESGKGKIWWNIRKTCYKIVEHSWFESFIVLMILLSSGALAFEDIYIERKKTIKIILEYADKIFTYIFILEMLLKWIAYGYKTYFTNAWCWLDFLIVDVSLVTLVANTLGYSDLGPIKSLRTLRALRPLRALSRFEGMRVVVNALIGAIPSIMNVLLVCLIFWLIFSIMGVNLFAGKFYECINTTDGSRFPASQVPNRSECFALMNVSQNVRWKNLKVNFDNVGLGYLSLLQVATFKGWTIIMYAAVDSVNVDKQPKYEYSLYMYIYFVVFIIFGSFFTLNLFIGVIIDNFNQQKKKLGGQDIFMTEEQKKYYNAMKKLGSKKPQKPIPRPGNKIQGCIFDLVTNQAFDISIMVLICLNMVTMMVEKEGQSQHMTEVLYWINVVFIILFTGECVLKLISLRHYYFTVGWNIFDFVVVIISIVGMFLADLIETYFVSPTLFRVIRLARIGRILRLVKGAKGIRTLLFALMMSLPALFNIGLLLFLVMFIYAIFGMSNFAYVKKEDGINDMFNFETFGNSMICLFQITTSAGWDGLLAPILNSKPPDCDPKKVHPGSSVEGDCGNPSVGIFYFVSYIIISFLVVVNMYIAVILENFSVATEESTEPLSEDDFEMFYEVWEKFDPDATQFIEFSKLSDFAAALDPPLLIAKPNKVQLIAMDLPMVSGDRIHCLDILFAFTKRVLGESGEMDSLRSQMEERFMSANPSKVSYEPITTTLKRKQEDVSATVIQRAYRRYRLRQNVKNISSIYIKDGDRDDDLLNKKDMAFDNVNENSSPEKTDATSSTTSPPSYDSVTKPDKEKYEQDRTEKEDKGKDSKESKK
SMILES,SNL-induced mechanical hyperalgesia in rats [2],"IC50 [1, 3]",other results
"C[C@H](Nc1cc(C(N)=O)nc(-c2ccc(Oc3ccc(F)cc3)c(CO)c2)n1)C(N)=O [compound 97, (S)-6-((1-amino-1-oxopropan-2-yl)amino)-2-(4-(4-fluorophenoxy)-3-(hydroxymethyl)phenyl)pyrimidine-4-carboxamide]",,,IC50 [1]: 5.72 µM
"NC(=O)c1cc(N[C@H]2CCNC2=O)nc(-c2ccc(Oc3ccc(C(F)(F)F)cn3)cc2)n1 [compound 99, (S)-6-((2-oxopyrrolidin-3-yl)amino)-2-(4-((5-(trifluoromethyl)pyridin-2-yl)oxy)phenyl)pyrimidine-4-carboxamide]",reduced SNL-induced mechanical hyperalgesia,,
C[C@H](Nc1cc(C(N)=O)nc(-c2ccc(Oc3cc(C(F)(F)F)ccn3)cc2)n1)C(N)=O [compound 57],,3.25 µM,
C[C@H](Oc1cc(C(N)=O)nc(-c2ccc(Oc3ccc(Cl)cc3F)cc2)n1)C(N)=O [Cpd No. 93],,0.083 µM,
C[C@H](Oc1cc(C(N)=O)nc(-c2ccc(Oc3cc(Cl)ccc3F)cc2)n1)C(N)=O [Cpd No. 92],,0.27 µM,
"C[C@H](Nc1cc(C(N)=O)nc(-c2ccc(Oc3ccc(OC(F)(F)F)cc3)cc2)n1)C(N)=O [compound 84, (S)-6-((1-amino-1-oxopropan-2-yl)amino)-2-(4-(4-(trifluoromethoxy)phenoxy)phenyl)pyrimidine-4-carboxamide]",reduced SNL-induced mechanical hyperalgesia,,
